The record followed here is US5620997A, “Isothiazolones” (Warner-Lambert Company, priority 1995, dated 1997).

Entries after “also recorded” stand apart in the source; their conditions may differ.

In one data set the target is T1, NCp7 (Human immunodeficiency virus type 1 (NEW YORK-5 ISOLATE), UniProt P12493).
T1 construct: same protein as the TSQ zinc-ejection assay
As to the kind of experiment: Electrospray ionization mass spectral analysis of NCp7 with compound. In kind it is binding, HIV-1. The following applies: 40 μM NCp7, ammonium acetate buffer pH 6, 320 μM compound, 3 minutes. The protocol:
Electrospray ionization mass spectral analysis was also performed. Using 40 μM NCp7 in ammonium acetate buffer at pH 6, 320 μM 4-(3-oxo-3h-benzo[d]isothiazol-2-yl)benzenesulfonamide (Example 1) in acetonitrile was added. […] In addition, a peak at 6740 corresponding to the NCp7+308+Zn appeared.

The nature of data set [1]: CEM cell assay, toxicity (growth inhibition). Type of data set: cell-based. The following applies: human, cem cells; Toxic concentration which inhibits the growth of cells 50% relative to control; read-out: CEM Cell Assay TC50. How it is done:
T4 lymphocytes (CEM cell line) are exposed to HIV at a virus to cell ratio approximately 0.05, and plated along with noninfected control cells in 96-well microliter plates. Candidate agent is dissolved in dimethyl sulfoxide (unless otherwise noted), then diluted 1:200 in cell culture medium. Further dilutions (half-log10) are prepared before adding to an equal volume of medium containing either infected or noninfected cells. Cultures are incubated at 37° in a 5% carbon dioxide atmosphere for 6 or 7 days. The tetrazolium salt, XTT, is added to all wells, and cultures are incubated to allow formazan color development by viable cells J. National Cancer Institute, 1989;81:577-586. Individual wells are analyzed spectrophotometrically to quantitate formazan production, and in addition are viewed microscopically for detection of viable cells confirmation of protective activity. Drug-tested virus-infected cells are compared with drug-treated noninfected cells and with other appropriate controls (untreated infected and untreated noninfected cells, drug-contain wells without cells, etc.) on the same plate. Data are reviewed in comparison with other tests done at the same time and a determination about activity is made.

In the next data set the test system is HIV. The data set is described as follows: CEM cell assay, anti-HIV activity (XTT, protection from viral cytopathic effects). To be noted: Human immunodeficiency virus 1, CCRF-CEM; Effective concentration which protects cells from viral cytopathic effects. In kind it is cell-based. The text has this:
The test systems utilized to establish the cellular antiviral activity of the isothiazolones of Formula I are well recognized in the art and are routinely employed for such purpose. For example, the assay utilized to evaluate the compounds activity against the HIV virus is that employed by the U.S. National Cancer Institute as described by Weislow O. S., et al., J. Natl. Cancer Inst., 1989;81:577-586, incorporated herein by reference.
The procedure is designed to detect agents acting at any stage of the virus reproductive cycle. The assay basically involves the killing of T4 lymphocytes by HIV. Small amounts of HIV are added to cells, and at least two complete cycles of virus reproduction are necessary to obtain the required cell killing. Agents which interact with virions, cells, or virus gene-products to interfere with viral activities will protect cells from cytolysis. The system is automated in several features to accommodate large numbers of candidate agents, and is generally designed to detect anti-HIV activity. However, compounds which degenerate or are rapidly metabolized in the culture conditions may not show activity in this screen.
Yet another test system employed to determine antiviral activity is called the CEM cell assay.
T4 lymphocytes (CEM cell line) are exposed to HIV at a virus to cell ratio approximately 0.05, and plated along with noninfected control cells in 96-well microliter plates.
Candidate agent is dissolved in dimethyl sulfoxide (unless otherwise noted), then diluted 1:200 in cell culture medium. Further dilutions (half-log10) are prepared before adding to an equal volume of medium containing either infected or noninfected cells.
Cultures are incubated at 37° in a 5% carbon dioxide atmosphere for 6 or 7 days. The tetrazolium salt, XTT, is added to all wells, and cultures are incubated to allow formazan color development by viable cells J. National Cancer Institute, 1989;81:577-586. Individual wells are analyzed spectrophotometrically to quantitate formazan production, and in addition are viewed microscopically for detection of viable cells confirmation of protective activity.
Drug-tested virus-infected cells are compared with drug-treated noninfected cells and with other appropriate controls (untreated infected and untreated noninfected cells, drug-contain wells without cells, etc.) on the same plate. Data are reviewed in comparison with other tests done at the same time and a determination about activity is made.

For data set [2], the target named is T2, HIV-1 Nucleocapsid Protein (NCp7) (Human immunodeficiency virus type 1 group M subtype B, UniProt P12493).
T2 construct: The NCp7 protein containing 2 Zn-fingers and 2 Zn ions
As to the kind of experiment: Fluorescence-based (TSQ) assay of zinc ejection from purified HIV-1 NCp7. Type of data set: biochemical. To be noted: 10 μM compound, 2.8 μM NCp7, 47 μM TSQ, pH 7.4, 26° C., 90 minutes. An excerpt:
The compounds of the present invention cause the extrusion of zinc from the nucleocapsid protein (NCp7) of HIV-1. The NC protein is highly conserved among all retroviruses (South T., Blake P., et al., Biochemistry, 1990;;29:7786) and is essential for viral infectivity (Aldovini A. and Young R., J. Virology, 1990;64:1920 and Gorelick R., Nigida S., et al., J. Virology, 1990;64:3207). The zinc is normally held in NC proteins by 1 or 2 zinc fingers. In the case of HIV-1, 2 zinc fingers are present (Summers M., South T., et al., Biochemistry, 1990;29:329) and are involved specifically with the PSI site on viral RNA which controls the packaging of viral RNA. Interference of this packaging causes the formation of non-infectious virions (Dannull J., Surovoy A., et al., EMBO, 1994;13:1525). It has previously been shown that compounds that cause zinc extrusion have potent anti-HIV activity in multiple cell lines and against all retroviruses (Rice W., Schaeffer C., et al., Nature, 1993;361:473).
A fluorescence-based assay has been developed to monitor the ejection of zinc from purified HIV-1 NCp7. The fluorophore, N-(6-methoxy-8-quinolyl)-p-toluenesulfonamide (TSQ), has an increased fluorescent signal upon bonding zinc ion in solution. The NCp7 protein containing 2 Zn-fingers and 2 Zn ions is incubated with drug causing the extrusion of Zn ions. The released Zn is then sequestered by the TSQ and the increased fluorescence monitored relative to control. The assay was performed as follows: 10 μM compound was added to 2.8 μM NCp7 and 47 μM TSQ in 20 μL of pH 7.4 buffer at 26° C. for 90 minutes. Fluorescence (excitation 355 nm emission 400 nm) was monitored versus time. Controls were the NCp7 under assay conditions without drug, and apo NCp7 (no Zn) with drug. The % Zn extrusion was calculated based on the actual fluorescence measured divided by the fluorescence of all theoretical Zn extruded (5.6 μM)×100.
Table 1 below presents the results of testing several of the invention compounds in zinc extrusion assay described above. The compounds were evaluated for their ability to cause the extrusion of zinc from nucleocapsid protein NCp7 (expressed as % relative to control).

For the compound `NS(=O)(=O)c1ccc(-n2sc3ccccc3c2=O)cc1` [Example 1, 4-(3-Oxo-3h-benzo[d]isothiazol-2-yl)-benzenesulfonamide], the “Zinc extrusion and covalent adduct formation by electrospray mass spectrometry” value on NCp7 was “a mass peak at 6360 (100%) corresponding to apo NCp7 (loss of 2 Zn) appeared; also recorded: the extrusion of zinc and the formation of a covalent bond between the cysteine of the zinc finger and the isothiazolone”. Besides, the CC50 in data set [1] was found to be 21 µM. In the data set with HIV, this compound came in with an EC50 of 5.1 µM. In addition, the “% Zn Extrusion Relative to Control” value in data set [2] is on record as 100%.
